“And” between values parts separate entries of the source, which are not always exact repeats. Identical values can stand only once. Toxic doses and inconclusive results are not listed. The calls were made as follows: active = survival T/C of 150% or more; inactive = T/C below 125% in these data.
Test system: CD2F1 mice, L1210 leukemia ip, survival T/C
Assay: NCI In Vivo Anticancer Drug Screen. Data for tumor model L1210 Leukemia (intraperitoneal) in CD2F1 (CDF1) mice
Details: higher = longer survival
Summary of the method: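 Transplantable tumor in mice; compound-treated vs vehicle-treated groups. Read-out = treated/control ratio of the measured endpoint.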

[1] = endpoint: mean survival time, dose: 50.0 mg/kg/injection, schedule: Q01DX009 (ip), vehicle: other
[2] = endpoint: mean survival time, dose: 100.0 mg/kg/injection, schedule: Q01DX009 (ip), vehicle: other
[3] = endpoint: mean survival time, dose: 200.0 mg/kg/injection, schedule: Q01DX009 (ip), vehicle: other
[4] = endpoint: mean survival time, dose: 100.0 mg/kg/injection, schedule: Q01DX009 (ip), vehicle: saline with Tween-80
[5] = endpoint: mean survival time, dose: 200.0 mg/kg/injection, schedule: Q01DX009 (ip), vehicle: saline with Tween-80
[6] = endpoint: mean survival time, dose: 400.0 mg/kg/injection, schedule: Q01DX009 (ip), vehicle: saline with Tween-80
[7] = endpoint: mean survival time, dose: 25.0 mg/kg/injection, schedule: Q01DX009 (ip), vehicle: saline with Tween-80
[8] = endpoint: mean survival time, dose: 25.0 mg/kg/injection, schedule: Q04DX003 (ip), vehicle: saline with Tween-80
[9] = endpoint: mean survival time, dose: 50.0 mg/kg/injection, schedule: Q01DX009 (ip), vehicle: saline with Tween-80
[10] = endpoint: mean survival time, dose: 100.0 mg/kg/injection, schedule: Q04DX003 (ip), vehicle: saline with Tween-80
[11] = endpoint: mean survival time, dose: 200.0 mg/kg/injection, schedule: Q04DX003 (ip), vehicle: saline with Tween-80
[12] = endpoint: mean survival time, dose: 400.0 mg/kg/injection, schedule: Q04DX003 (ip), vehicle: saline with Tween-80
[13] = endpoint: mean survival time, dose: 100.0 mg/kg/injection, schedule: Q01DX001 (ip), vehicle: carboxymethylcellulose (CMC)
[14] = endpoint: mean survival time, dose: 200.0 mg/kg/injection, schedule: Q01DX001 (ip), vehicle: carboxymethylcellulose (CMC)
[15] = endpoint: mean survival time, dose: 400.0 mg/kg/injection, schedule: Q01DX001 (ip), vehicle: carboxymethylcellulose (CMC)
[16] = endpoint: mean survival time, dose: 75.0 mg/kg/injection, schedule: Q01DX001 (ip), vehicle: saline
[17] = endpoint: mean survival time, dose: 100.0 mg/kg/injection, schedule: Q01DX001 (ip), vehicle: saline with Tween-80
[18] = endpoint: mean survival time, dose: 200.0 mg/kg/injection, schedule: Q01DX001 (ip), vehicle: saline with Tween-80

Measured: T/C

CCC1=[N+]([O-])[N+]([O-])=C(c2ccccc2)C1=O
inactive: [1] 93 % of control | [2] 101 % of control | [3] 93 % of control

COc1ccc(/C=C(\C#N)c2ccc(C)cc2)cc1OC
inactive: [4] 101 % of control | [5] 108 % of control | [6] 107 % of control

CC#CC(=O)SCCNC(=O)CC(C)(C)C
inactive: [7] 96 % of control | [8] 105 % of control | [9] 96 % of control | endpoint: mean survival time, dose: 50.0 mg/kg/injection, schedule: Q04DX003 (ip), vehicle: saline with Tween-80 96 % of control | [4] 95 % of control | [10] 106 % of control | [5] 97 % of control | [11] 98 % of control

OC(COc1ccc(Cl)cc1Cl)COc1ccc(Cl)cc1Cl
inactive: [10] 95 % of control | [11] 92 % of control | [12] 93 % of control

Cc1cc(-c2ccccc2)cc(=S)[nH]1
inactive: [13] 88 % of control | [14] 94 % of control | [15] 95 % of control

Cc1ccc(S(=O)(=O)OCOS(=O)(=O)c2ccc(C)cc2)cc1
inactive: endpoint: median survival time, dose: 50.0 mg/kg/injection, schedule: Q01DX009 (ip), vehicle: Klucel (hydroxypropylcellulose) (HPC) 113 % of control | endpoint: median survival time, dose: 100.0 mg/kg/injection, schedule: Q01DX009 (ip), vehicle: Klucel (hydroxypropylcellulose) (HPC) 107 % of control and 111 % of control | endpoint: median survival time, dose: 200.0 mg/kg/injection, schedule: Q01DX009 (ip), vehicle: Klucel (hydroxypropylcellulose) (HPC) 122 % of control and 112 % of control | endpoint: median survival time, dose: 800.0 mg/kg/injection, schedule: Q01DX009 (ip), vehicle: Klucel (hydroxypropylcellulose) (HPC) 124 % of control and 103 % of control

CCOC(=N)c1cn(C2OC(CO)C(O)C2O)c2nc[nH]c(=O)c12 (stereo not drawn)
inactive: [16] 119 % of control

COC1C=CC=CC=C1
inactive: endpoint: mean survival time, dose: 15.0 mg/kg/injection, schedule: Q04DX003 (ip), vehicle: saline sonified 100 % of control | endpoint: mean survival time, dose: 30.0 mg/kg/injection, schedule: Q04DX003 (ip), vehicle: saline sonified 94 % of control | endpoint: mean survival time, dose: 60.0 mg/kg/injection, schedule: Q04DX003 (ip), vehicle: saline sonified 100 % of control

Nc1nc(N)n(-c2ccccn2)n1
inactive: endpoint: mean survival time, dose: 75.0 mg/kg/injection, schedule: Q01DX001 (ip), vehicle: other 101 % of control | endpoint: mean survival time, dose: 150.0 mg/kg/injection, schedule: Q01DX001 (ip), vehicle: other 97 % of control

NCC(OCC(=O)O)C(Cl)(Cl)Cl (stereo not drawn)
inactive: [10] 101 % of control | [11] 96 % of control | [12] 101 % of control

COC1OC(CO)C2OC(=O)NC2C1O (stereo not drawn)
inactive: endpoint: mean survival time, dose: 100.0 mg/kg/injection, schedule: Q04DX003 (ip), vehicle: saline 98 % of control | endpoint: mean survival time, dose: 200.0 mg/kg/injection, schedule: Q04DX003 (ip), vehicle: saline 94 % of control | endpoint: mean survival time, dose: 400.0 mg/kg/injection, schedule: Q04DX003 (ip), vehicle: saline 100 % of control

COc1ccc(NC(=O)Oc2cccnc2)c(Cl)c1
inactive: endpoint: mean survival time, dose: 50.0 mg/kg/injection, schedule: Q01DX009 (ip), vehicle: Klucel (hydroxypropylcellulose) (HPC) 100 % of control | endpoint: mean survival time, dose: 100.0 mg/kg/injection, schedule: Q01DX009 (ip), vehicle: Klucel (hydroxypropylcellulose) (HPC) 104 % of control

O=C1C2CCCCC2C(=O)N1c1cccc2cccnc12 (stereo not drawn)
inactive: endpoint: mean survival time, dose: 50.0 mg/kg/injection, schedule: Q01DX001 (ip), vehicle: saline with Tween-80 98 % of control | [17] 95 % of control | [18] 95 % of control

CC(O)COCCOCCO (stereo not drawn)
inactive: endpoint: mean survival time, dose: 100.0 mg/kg/injection, schedule: Q01DX009 (ip), vehicle: saline 100 % of control | endpoint: mean survival time, dose: 200.0 mg/kg/injection, schedule: Q01DX009 (ip), vehicle: saline 103 % of control | endpoint: mean survival time, dose: 400.0 mg/kg/injection, schedule: Q01DX009 (ip), vehicle: saline 100 % of control

COC(=O)c1ncn(C2OC(CO)C(O)C2O)n1 (stereo not drawn)
inactive: endpoint: median survival time, dose: 8.75 mg/kg/injection, schedule: Q01DX005 (ip), vehicle: water 100 % of control | endpoint: median survival time, dose: 17.5 mg/kg/injection, schedule: Q01DX005 (ip), vehicle: water 96 % of control | endpoint: median survival time, dose: 35.0 mg/kg/injection, schedule: Q01DX005 (ip), vehicle: water 97 % of control | endpoint: median survival time, dose: 70.0 mg/kg/injection, schedule: Q01DX005 (ip), vehicle: water 97 % of control | endpoint: median survival time, dose: 140.0 mg/kg/injection, schedule: Q01DX005 (ip), vehicle: water 100 % of control

COc1ccc(C(=O)/C(C)=C(/C)NCCC#N)c(OCc2ccccc2)c1OC
inactive: endpoint: mean survival time, dose: 12.5 mg/kg/injection, schedule: Q01DX009 (ip), vehicle: other 97 % of control | endpoint: mean survival time, dose: 25.0 mg/kg/injection, schedule: Q01DX009 (ip), vehicle: other 97 % of control | [1] 97 % of control | [2] 95 % of control | [3] 104 % of control

O=C(O)c1ccc(S(=O)(=O)N(Cl)Cl)cc1
inactive: [10] 109 % of control | [11] 95 % of control | [12] 95 % of control

CC(=O)NC(Cc1ccccc1)C(C)=O (stereo not drawn)
inactive: [17] 102 % of control | [18] 98 % of control | endpoint: mean survival time, dose: 400.0 mg/kg/injection, schedule: Q01DX001 (ip), vehicle: saline with Tween-80 102 % of control

COCCNC(=O)Nc1cccc2c1CCCC2
inactive: [10] 106 % of control | [11] 97 % of control | [12] 91 % of control

C#CCOCCC(C(C)=O)C(=O)OCC (stereo not drawn)
inactive: endpoint: mean survival time, dose: 100.0 mg/kg/injection, schedule: Q01DX001 (ip), vehicle: saline 104 % of control | endpoint: mean survival time, dose: 200.0 mg/kg/injection, schedule: Q01DX001 (ip), vehicle: saline 100 % of control

[Cl][Pt+2][Cl].[NH-]c1ccccc1C(F)(F)F.[NH-]c1ccccc1C(F)(F)F
inactive: endpoint: mean survival time, dose: 12.5 mg/kg/injection, schedule: Q04DX003 (ip), vehicle: distilled water + Tween-80 97 % of control | endpoint: mean survival time, dose: 25.0 mg/kg/injection, schedule: Q04DX003 (ip), vehicle: distilled water + Tween-80 97 % of control | endpoint: mean survival time, dose: 50.0 mg/kg/injection, schedule: Q04DX003 (ip), vehicle: distilled water + Tween-80 106 % of control | endpoint: mean survival time, dose: 100.0 mg/kg/injection, schedule: Q04DX003 (ip), vehicle: distilled water + Tween-80 114 % of control

O=C(CNC(=O)c1ccccc1)N/N=C/c1ccncc1
inactive: [4] 90 % of control | [6] 92 % of control

O=C(CCCl)Oc1c(Cl)c(Cl)c(Cl)c(Cl)c1Cl
inactive: [4] 92 % of control

CCOC(=O)N(N=O)c1ccc2c(c1)Cc1cc([N+](=O)[O-])ccc1-2
inactive: [13] 105 % of control | [14] 105 % of control | [15] 97 % of control

NC(=O)C1C=CCC1 (stereo not drawn)
inactive: [7] 104 % of control | endpoint: mean survival time, dose: 25.0 mg/kg/injection, schedule: Q04DX002 (ip), vehicle: saline with Tween-80 95 % of control | [9] 101 % of control | endpoint: mean survival time, dose: 50.0 mg/kg/injection, schedule: Q04DX002 (ip), vehicle: saline with Tween-80 100 % of control | [4] 101 % of control | endpoint: mean survival time, dose: 100.0 mg/kg/injection, schedule: Q04DX002 (ip), vehicle: saline with Tween-80 91 % of control

O=C1CCC(=O)N1CCC1=NCCc2cc(OCc3ccccc3)ccc21
inactive: [4] 101 % of control | [10] 102 % of control | [5] 94 % of control | [11] 94 % of control | [6] 97 % of control | [12] 90 % of control

O=C(c1ccccc1)C(Br)C(C(=O)O)c1ccccc1 (stereo not drawn)
inactive: [10] 101 % of control | [11] 95 % of control | [12] 95 % of control

COc1cc(Cl)ccc1NC(=O)OCCOc1ccc(Br)cc1
inactive: endpoint: mean survival time, dose: 12.5 mg/kg/injection, schedule: Q01DX009 (ip), vehicle: saline with Tween-80 91 % of control | [7] 87 % of control | [9] 119 % of control and 91 % of control

O=P(Cc1ccccc1)(Cc1ccccc1)c1ccccc1
inactive: [16] 95 % of control | endpoint: mean survival time, dose: 150.0 mg/kg/injection, schedule: Q01DX001 (ip), vehicle: saline 93 % of control | endpoint: mean survival time, dose: 300.0 mg/kg/injection, schedule: Q01DX001 (ip), vehicle: saline 100 % of control

Cc1cc(CCl)c(C)cc1CCl
inactive: endpoint: mean survival time, dose: 6.25 mg/kg/injection, schedule: Q04DX003 (ip), vehicle: saline with Tween-80 91 % of control | endpoint: mean survival time, dose: 12.5 mg/kg/injection, schedule: Q04DX003 (ip), vehicle: saline with Tween-80 91 % of control | [8] 87 % of control | [10] 98 % of control

C=CC(O)Cc1ccccc1 (stereo not drawn) (tested in a mixture with another compound)
inactive: endpoint: mean survival time, dose: 75.0 mg/kg/injection, schedule: Q01DX009 (ip), vehicle: saline 98 % of control | endpoint: mean survival time, dose: 150.0 mg/kg/injection, schedule: Q01DX009 (ip), vehicle: saline 101 % of control | endpoint: mean survival time, dose: 300.0 mg/kg/injection, schedule: Q01DX009 (ip), vehicle: saline 107 % of control

— PubChem BioAssay AID256 (DTP/NCI, 2004)
